Reference: US11135252B2, “Probiotic therapies for developmental disorders and other neurological disorders” (Baylor College of Medicine, priority 2016, dated 2021)
“Also recorded” adds a separate entry of the source.

Tested on: MHFD offspring
Test: Three-chamber social test in MHFD offspring
Type: in vivo, mice
Settings: in drinking water, 4 weeks
Protocol: Crawley's three-chamber test for sociability and preference for social novelty was performed as described (Silverman et al., 2010). In brief, the mouse first experienced a 10-minute period of habituation during which it was allowed to freely explore a 60×40×23 cm Plexiglass arena divided into three equally sized, interconnected chambers (Left, Center, Right). Sociability was measured during a second ten-minute period in which the subject could interact either with an empty wire cup (Empty) or a wire cup containing an age and sex-matched stranger conspecific (Mouse 1). Time spent interacting (sniffing, crawling upon) with either the empty cup or the stranger mouse contained in the other cup as well as time spent in each chamber was recorded using the AnyMaze software, by independent observers. Empty cup placement in the Left or Right chamber during the Sociability period was counterbalanced between trials. Finally, preference for social novelty was assayed by introducing a second stranger mouse (Mouse 2) into the previously the empty wire cup. Time spent in each chamber as well as time spent interacting with either Mouse 1 or Mouse 2 was recorded using the automated AnyMaze software by independent observers. Lactobacillus reuteri MM4-1A (ATCC-PTA-6475) and Lactobacillus johnsonii (ATCC 33200) were cultured anaerobically in MRS broth in a 90% N2, 5% CO2, 5% H2 environment. L. reuteri was heat-killed by keeping the bacteria at 80° C. for 20 minutes (Wang et al., 2010). Bacterial viability was assessed by plating and the efficacy of the heat-kill procedure was confirmed by the absence of colony growth following plating. Cultures were centrifuged, washed, and resuspended in anaerobic solution (PBS) and frozen at −80° C. until use. PBS, live or heat-killed L. reuteri were added to the drinking water, which was changed daily to minimize dosage variability. Whereas the experimental group received live bacteria, one control group received identically prepared cultures of heat-killed bacteria. A second group of control mice received water treated with PBS alone. Live and heat-killed L. reuteri were supplied at a dosage of 1×10^8 organisms/mouse/day continuously in drinking water. Mice consumed the treated water ad libitum over the treatment period. The treated drinking water for each group was replaced daily two hours prior to the onset of the dark cycle to minimize variation in microbial exposure. Behavioral assays were initiated after 4-weeks of L. reuteri or control treatment. The protocol of the L. johnsonii preparation and administration matched the L. reuteri protocol. Fecal samples for sequencing and tissue used in the immunofluorescence studies were collected at the end of the treatment. Oxytocin was obtained from Tocris Bioscience (product 1910) and solubilized in 10% dimethyl sulfoxide (DMSO) in PBS. 10% DMSO in PBS was used as the vehicle control. Mice received oxytocin intranasally (at approximately 200 μg/kg) thirty minutes prior to behavior. 1.25 μl of oxytocin or vehicle solution was injected into each nostril from P10 pipette. Oxytocin dose was selected according to dosages reported to rescue social behavior in genetic models phenotypically expressing ASD-like behaviors (Penagarikano et al., 2015).

## Lactobacillus johnsonii (ATCC 33200) [L. johnsonii]
  social behavior / social deficits (sociability and preference for social novelty): failed to rescue social behaviors; also recorded: Failed to Reverse Social Deficits
